Laboratory results published in PubChem BioAssay (NCI).
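All cell lines were grown in 96-well plates and treated with compound for 48 hours. At the GI50, growth is halved. TGI denotes the concentration required for complete inhibition of growth.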

Legend:
Assay in all cases: inhibition of tumour cell growth, NCI panel, 48 h
EKVX NSCLC = test system: EKVX NSCLC
SF-539 CNS = test system: SF-539 CNS
DLD-1 colon = test system: DLD-1 colon
DMS 114 small cell lung = test system: DMS 114 small cell lung
DMS 273 small cell lung = test system: DMS 273 small cell lung
HOP-18 NSCLC = test system: HOP-18 NSCLC
KM20L2 colon = test system: KM20L2 colon
LXFL 529 NSCLC = test system: LXFL 529 NSCLC
M19-MEL melanoma = test system: M19-MEL melanoma
RXF-631 renal = test system: RXF-631 renal
SNB-78 CNS = test system: SNB-78 CNS
XF 498 CNS = test system: XF 498 CNS

## CC(=O)Nc1ccc(N=C2C(c3ccccc3)=C(SC3=C(c4ccccc4)C(=Nc4ccc(NC(C)=O)cc4)c4ccccc43)c3ccccc32)cc1
EKVX NSCLC
  TGI: > 100 µM
SF-539 CNS
  TGI: 28.5 µM

## CC1=NNC(=O)C1C1CC(c2c[nH]c3ccccc23)=NNC1=S (centres undefined)
EKVX NSCLC
  TGI: > 100 µM
SF-539 CNS
  TGI: > 100 µM

## O=C(Nc1nc(C23CC4CC(CC(C4)C2)C3)cs1)c1c(O)c2ccccc2[nH]c1=O
EKVX NSCLC
  TGI: > 100 µM
SF-539 CNS
  TGI: > 100 µM

## O=C(CC(=O)Nc1cccc(Cl)c1)NNCC(=O)Nc1nnc(-c2ccccc2)s1
DLD-1 colon
  TGI: > 100 µM
DMS 114 small cell lung
  TGI: > 100 µM
DMS 273 small cell lung
  TGI: > 100 µM
EKVX NSCLC
  TGI: > 100 µM
HOP-18 NSCLC
  TGI: 58.6 µM
KM20L2 colon
  TGI: > 100 µM
LXFL 529 NSCLC
  TGI: > 100 µM
M19-MEL melanoma
  TGI: > 100 µM
RXF-631 renal
  TGI: > 100 µM
SF-539 CNS
  TGI: > 100 µM
SNB-78 CNS
  TGI: > 100 µM
XF 498 CNS
  TGI: 76.3 µM

## COC(=O)[C@@H]1C=C[C@H](OC2OC(COC(C)=O)C(OC(C)=O)C(OC(C)=O)C2OC(C)=O)n2c(=O)c3ccccc3c(=O)n21 (some centres undefined)
EKVX NSCLC
  TGI: 30.5 µM
SF-539 CNS
  TGI: 33.7 µM

## C#CCn1ncc2c(SC)ncnc21
EKVX NSCLC
  TGI: > 100 µM
SF-539 CNS
  TGI: > 100 µM

## O=[N+]([O-])c1ccc2[nH]nc(OCc3ccccn3)c2c1
EKVX NSCLC
  TGI: > 100 µM
SF-539 CNS
  TGI: > 100 µM

## O=S(=O)(O)CCCC1S(=O)(=O)OCCOS1(=O)=O
EKVX NSCLC
  TGI: > 100 µM
SF-539 CNS
  TGI: > 100 µM

## O=C1CCCC2C(O)CCC[C@H]12 (some centres undefined)
EKVX NSCLC
  TGI: > 100 µM
SF-539 CNS
  TGI: > 100 µM

## Nc1ccc2nc(NCc3ccc(F)cc3)cnc2c1
DMS 114 small cell lung
  TGI: > 100 µM
DMS 273 small cell lung
  TGI: > 100 µM
EKVX NSCLC
  TGI: > 100 µM
KM20L2 colon
  TGI: > 100 µM
LXFL 529 NSCLC
  TGI: > 100 µM
SF-539 CNS
  TGI: > 100 µM
SNB-78 CNS
  TGI: > 100 µM
XF 498 CNS
  TGI: > 100 µM

## CC(C)CC[C@H](O)[C@@H](C)[C@H]1[C@@H](OC2OC(C)C(O)C(O)C2O)C[C@H]2[C@@H]3CC=C4C[C@@H](O)CC[C@]4(C)[C@H]3[C@@H](O)C[C@]12C (some centres undefined)
EKVX NSCLC
  TGI: > 100 µM
SF-539 CNS
  TGI: 0.578 µM

## Cc1nc2ccc(Cl)cc2c2c1CCS2
SF-539 CNS
  TGI: > 100 µM

## N#CCCN(c1ccc(/C=C2\N=C(Cc3ccccc3)OC2=O)cc1)S(=O)(=O)c1ccccc1
DLD-1 colon
  TGI: > 100 µM
DMS 114 small cell lung
  TGI: > 100 µM
DMS 273 small cell lung
  TGI: > 100 µM
EKVX NSCLC
  TGI: > 100 µM
KM20L2 colon
  TGI: > 100 µM
LXFL 529 NSCLC
  TGI: > 100 µM
SF-539 CNS
  TGI: > 100 µM
SNB-78 CNS
  TGI: > 100 µM
XF 498 CNS
  TGI: > 100 µM

## COC(=O)C(C)(C)OCc1ccc(C2NC(=O)N(c3cccc(Cl)c3)C(=O)N2c2cccc(Cl)c2)cc1 (centres undefined)
EKVX NSCLC
  TGI: 78.8 µM
SF-539 CNS
  TGI: > 100 µM

## C/C(=C\c1ccccc1)C(=O)NCc1ccc(C(=O)NCCC(C)C)cc1
EKVX NSCLC
  TGI: > 100 µM
SF-539 CNS
  TGI: > 100 µM

## N#Cc1c2c(c(Nc3cccc(C(F)(F)F)c3)n3c1nc1ccccc13)CCC2
EKVX NSCLC
  TGI: > 100 µM
SF-539 CNS
  TGI: > 100 µM

## C=CCOC(=O)Cn1cc(C)c(=O)[nH]c1=O
EKVX NSCLC
  TGI: > 100 µM
SF-539 CNS
  TGI: > 100 µM

## CC(=O)N1CN2C(=O)CCC2c2ccccc21 (centres undefined)
EKVX NSCLC
  TGI: > 100 µM
SF-539 CNS
  TGI: > 100 µM

## N#CC1Cc2cc3c(cc21)OCO3 (centres undefined)
EKVX NSCLC
  TGI: > 100 µM
SF-539 CNS
  TGI: > 100 µM

## C=[N+](CNC(=O)CNC(=O)C(Cc1ccc([N+](=O)[O-])cc1)NC(=O)OC(C)(C)C)C(=O)CNC(=O)C(Cc1ccc([N+](=O)[O-])cc1)NC(=O)OC(C)(C)C (centres undefined)
EKVX NSCLC
  TGI: > 100 µM
SF-539 CNS
  TGI: 57.9 µM

## C1=Nc2ccc(cc2)N=Cc2ccc(cc2)OCc2cccc(n2)COc2ccc1cc2
EKVX NSCLC
  TGI: > 100 µM
SF-539 CNS
  TGI: > 100 µM

## N#CC(c1nc2ccccc2s1)c1ncnc(Cl)c1[N+](=O)[O-] (centres undefined)
EKVX NSCLC
  TGI: 76.5 µM
SF-539 CNS
  TGI: 61.3 µM

## CCOC(=O)C1C(c2ccc(OC)cc2)c2c([nH]n(-c3ccccc3)c2=O)CC1(O)OCC (centres undefined)
EKVX NSCLC
  TGI: > 100 µM
SF-539 CNS
  TGI: > 100 µM

## O=[N+]([O-])c1ccc(-c2nc3ccc([N+](=O)[O-])cc3[nH]2)cc1
EKVX NSCLC
  TGI: > 100 µM
SF-539 CNS
  TGI: > 100 µM

## NC(=O)c1cccc(C2OC(COP(=O)(O)O)C(O)C2O)c1 (centres undefined)
DLD-1 colon
  TGI: > 50 µM
DMS 273 small cell lung
  TGI: > 50 µM
EKVX NSCLC
  TGI: > 50 µM
KM20L2 colon
  TGI: > 50 µM
LXFL 529 NSCLC
  TGI: > 50 µM
M19-MEL melanoma
  TGI: > 50 µM
SF-539 CNS
  TGI: > 50 µM
SNB-78 CNS
  TGI: > 50 µM
XF 498 CNS
  TGI: > 50 µM

## O=C1Cc2c([nH]c3c(Cl)cccc23)-c2ccccc2N1
SF-539 CNS
  TGI: > 100 µM

## S=c1nc(Cc2ccc(Cl)cc2)[nH][nH]1
EKVX NSCLC
  TGI: > 100 µM
SF-539 CNS
  TGI: > 100 µM

## Cc1ccc(Cc2n[nH]c(=O)n2-c2ccccc2)cc1
SF-539 CNS
  TGI: > 100 µM

## COc1ccc(/C=C2\C(=O)N(C)C(=O)c3cc(OC)c(OC)cc32)cc1OC
EKVX NSCLC
  TGI: 27.9 µM
SF-539 CNS
  TGI: 76.2 µM

## COc1cc(-c2cc(=O)c3c(OC)c(OC)c(OC)cc3o2)c(OC)c(OC)c1OC
EKVX NSCLC
  TGI: > 75 µM
SF-539 CNS
  TGI: > 75 µM

## CCCCCCNC(=O)c1cc(CCc2cc(O)ccc2O)ccc1O
EKVX NSCLC
  TGI: 15.8 µM
SF-539 CNS
  GI50: 2.18 µM
  TGI: 5.31 µM

## CC(=O)O[C@]12CCCCC1C1(O)C(O)CCCCC12 (some centres undefined)
DMS 114 small cell lung
  TGI: > 100 µM
DMS 273 small cell lung
  TGI: > 100 µM
EKVX NSCLC
  TGI: > 100 µM
HOP-18 NSCLC
  TGI: > 100 µM
KM20L2 colon
  TGI: > 100 µM
LXFL 529 NSCLC
  TGI: > 100 µM
M19-MEL melanoma
  TGI: > 100 µM
SNB-78 CNS
  TGI: > 100 µM

## O=c1[nH]c2ccc(Cl)cc2c2oc(-c3ccccc3)nc12
EKVX NSCLC
  TGI: 89.8 µM
SF-539 CNS
  TGI: > 100 µM

## Nc1ccc(-c2cssc2=S)cc1
EKVX NSCLC
  TGI: > 100 µM
SF-539 CNS
  TGI: > 100 µM

## CCCN1CC=C(c2cc(C(=O)OCC)[nH]c2-c2cc(C)no2)C1=O
EKVX NSCLC
  TGI: > 100 µM
SF-539 CNS
  TGI: > 100 µM

## CC(=O)NNc1nc(C)c(C(/C=C/c2ccc([N+](=O)[O-])cc2)=N/N)s1
EKVX NSCLC
  TGI: > 100 µM
SF-539 CNS
  TGI: > 100 µM

## Cc1n[nH]c(=O)n1C1CCCC1
EKVX NSCLC
  TGI: > 100 µM
SF-539 CNS
  TGI: > 100 µM

## COc1ccccc1/C=C(\C#N)C(=O)c1ccccc1
DMS 114 small cell lung
  TGI: > 100 µM
DMS 273 small cell lung
  TGI: > 100 µM
EKVX NSCLC
  TGI: > 100 µM
KM20L2 colon
  TGI: > 100 µM
M19-MEL melanoma
  TGI: > 100 µM
SF-539 CNS
  TGI: > 100 µM
SNB-78 CNS
  TGI: > 100 µM
XF 498 CNS
  TGI: > 100 µM

## O=C(N/N=C(/COc1ccc(Cl)cc1)N=Cc1cccnc1)c1ccncc1
EKVX NSCLC
  TGI: > 100 µM
SF-539 CNS
  TGI: > 100 µM

## O=C(C=P(c1ccccc1)(c1ccccc1)c1ccccc1)c1cccc(-c2cccc([N+](=O)[O-])c2)c1
EKVX NSCLC
  TGI: > 100 µM
SF-539 CNS
  TGI: 54.4 µM

## Cc1ccc(O)c(C(c2ccc([N+](=O)[O-])cc2)c2cc(C)ccc2O)c1
EKVX NSCLC
  TGI: 34.3 µM
SF-539 CNS
  TGI: 32.1 µM

## CC(C)c1nc2cc(C(F)(F)F)ccc2[nH]c1=O
EKVX NSCLC
  TGI: > 100 µM
SF-539 CNS
  TGI: > 100 µM
